Earlier results as cited in patent publication US20220017863A1, “SIRT2-ABLATED CHIMERIC T CELLS” (H. Lee Moffitt Cancer Center and Research Institute, Inc., priority 2019, published 2022).

Target: T1, SIRT1 (Homo sapiens, UniProt Q96EB6)
T1 sequence (Q96EB6 1-747): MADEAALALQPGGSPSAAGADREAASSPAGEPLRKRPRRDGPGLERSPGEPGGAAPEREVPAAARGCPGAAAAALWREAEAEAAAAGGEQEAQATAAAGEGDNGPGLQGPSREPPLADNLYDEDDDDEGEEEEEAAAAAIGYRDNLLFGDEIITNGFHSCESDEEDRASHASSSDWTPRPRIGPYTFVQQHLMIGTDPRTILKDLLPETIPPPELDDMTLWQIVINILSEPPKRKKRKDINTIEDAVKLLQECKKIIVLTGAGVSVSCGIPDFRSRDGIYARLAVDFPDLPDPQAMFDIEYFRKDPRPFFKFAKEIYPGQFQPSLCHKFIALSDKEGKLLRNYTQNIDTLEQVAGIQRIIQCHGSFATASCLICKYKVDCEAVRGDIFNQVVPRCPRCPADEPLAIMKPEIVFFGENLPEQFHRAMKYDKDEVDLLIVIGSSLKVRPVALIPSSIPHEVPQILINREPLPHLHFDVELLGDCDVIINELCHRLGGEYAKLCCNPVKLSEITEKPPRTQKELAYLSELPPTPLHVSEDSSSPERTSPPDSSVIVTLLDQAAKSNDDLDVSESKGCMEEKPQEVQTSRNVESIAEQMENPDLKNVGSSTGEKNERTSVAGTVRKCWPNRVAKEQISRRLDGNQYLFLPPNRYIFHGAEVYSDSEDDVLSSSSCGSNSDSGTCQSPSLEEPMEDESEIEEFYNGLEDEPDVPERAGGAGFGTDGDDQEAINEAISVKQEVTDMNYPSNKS
Conditions: at 10-fold higher levels than the SIRT2 IC50; cited from earlier work

SMILES: N#C/C(=C/c1ccc(-c2cc(Cl)ccc2Cl)o1)C(=O)Nc1cccc2ncccc12 [AGK2]
- effect on SIRT1: minimally affects
